Measured values reported in paper PMC6594753, “Cystic fibrosis drug ivacaftor stimulates CFTR channels at picomolar concentrations” (eLife, 2019).
In brackets after ≈: the same amount, converted by molar mass. Several values for one entry are separate records, joined by “and”; a condition that tells them apart may be missing. Equal values may be shown once. Read-outs that look alike come from different tables or passages of the source.

Experiment: Determination of Vx-770 solubility profile (incremental solvent addition; saturated saline, 1-octanol extraction, spectrophotometry at 311 nm)
Format: physicochemical
Details: for solubility at 24 h: aqueous saline (standard bath solution)
Description: We reasoned that some of the reported controversies on Vx-770 effects might be explained by the use of highly supersaturated concentrations of the drug in all published studies, and set out to determine its true solubility profile. Starting from crystalline Vx-770 (Selleck Chemicals), solubilities (S) of the drug in various organic solvents could be readily determined by adding incremental small volumes of solvent until all crystals had been dissolved (Table 1). We found Vx-770 extremely soluble in anhydrous dimethyl sulfoxide (DMSO) (S ~ 0.77 M), and reasonably soluble in 1-octanol (S ~ 3.9 mM) and ethanol (S ~ 3.1 mM). […] To generate an aqueous solution exactly saturated with Vx-770, a small aliquot of crystals was added to an aqueous saline (pH = 7.1) and, after vigorous shaking for 24 hr, visible crystals were removed by repeated filtering and microcrystals sedimented by centrifugation (Materials and methods). The resulting supernatant (our ‘1x saturated’ stock solution) was then used both for determination of Vx-770 solubility (Figure 1b–c), and for functional experiments (Figures 2–5). […] Repeated extraction of the aqueous stock with 1-octanol yielded a flat spectrum ([…], green spectrum, ‘2nd extract’), confirming that all Vx-770 had been efficiently extracted in the first round.
Crystalline Vx-770 (purity 99.58% by HPLC) was purchased from Selleck Chemicals (Houston, TX, USA). Solubilities (S) at 25°C in anhydrous dimethyl sulfoxide (DMSO) (S ~ 0.77 M), 1-octanol (S ~ 3.9 mM), ethanol (S ~ 3.1 mM), octane (S ~ 2.6 mM), and pentane (S ~ 18 μM) were determined by weighing out a small amount (1–2 mg) of crystals on an analytical balance (Kern ABJ), and adding incremental small volumes of solvent, followed by mixing, until all crystals had been dissolved.
To obtain an aqueous solution (pH = 7.1) exactly saturated with Vx-770 (our ‘1x saturated’ stock), a small aliquot of Vx-770 crystals (~0.1 mg) was added to 250 ml of our standard bath solution (in mM: 134 NMDG-Cl, 2 MgCl2, 5 HEPES, 0.5 EGTA, pH = 7.1 with NMDG), and the solution was shaken for 24 hr at 25°C at 200 RPM (New Brunswick Excella E24). Remaining, clearly visible, macrocrystals were removed by filtering the solution twice through an 0.22 μm pore size filter (Millipore Durapore Steritop + Stericup, Merck KGaA, Darmstadt, Germany). To sediment invisible microcrystals, the filtrate was centrifuged at 7200 RCF for 1 hr in 50 ml conical tubes, and the supernatant carefully removed, leaving the last ~1 ml behind. The resulting cleared filtrate was stored and used as a stock solution for all subsequent studies.
The concentration of Vx-770 in the 1x saturated stock was determined by spectrophotometry (NanoPhotometer P300, Implen GmbH). […] To obtain a calibration curve, Vx-770 (from a commercial 10 mM stock dissolved in DMSO, purchased from Selleck Chemicals) was diluted into 1-octanol (saturated with water) to final concentrations of 1, 2, 4, 8, and 16 μM. Absorption spectra were measured in a 1 ml quartz cuvette against 1-octanol (saturated with water) as a blank (Figure 1b, blue spectra). To extract Vx-770 from the 1x saturated aqueous stock, two 15 ml conical tubes, each containing 14 ml of the 1x aqueous stock plus 0.7 ml 1-octanol, were vortexed for 1 min, and then centrifuged at 7200 RCF for 30 min. Approximately 2 × 0.6 ml of the 1-octanol phase was recovered, pooled, and its absorption spectrum measured in a 1 ml quartz cuvette against 1-octanol (saturated with water) as a blank (Figure 1b, red spectrum). To extract the remaining aqueous phase for a second time, the remnants of the 1-octanol phase were carefully discarded from both conical tubes, and 12.5 ml of the remaining aqueous phase (removed by inserting the pipette tip well below the surface) was transferred into two clean conical tubes. The extraction was then repeated using 2 × 0.625 ml 1-octanol, from which 2x ~ 0.5 ml was recovered, pooled, and assayed for optical density (Figure 1b, green spectrum). […]

solubility (1-octanol, 25 °C, organic solvent or mixture, thermodynamic from solid, 1-octanol, 25°C, read-out: S (solubility)): 3900 µM (≈ 1530 µg/mL)
aqueous solubility lower than reported / generally believed (25°C): ~ 200 fold
aqueous solubility Saq (25°C, pH = 7.1, aqueous saline): ~ 62 nM and ~ 60 nM
solubility (anhydrous DMSO, 25 °C, organic solvent or mixture, thermodynamic from solid, DMSO, 25°C, read-out: S (solubility)): 770000 µM (≈ 302000 µg/mL)
solubility at 24 h (25 °C, pH 7.1, thermodynamic from solid, water (pH=7.1), aqueous saline, 25°C, read-out: S (solubility)): 0.062 µM (≈ 0.0243 µg/mL)
solubility at 24 h (pH 7.1, 25°C, over pH 7.1 and 7.4, read-out: aqueous solubility estimate): 0.05 to 0.062 µM (≈ 0.0196 to 0.0243 µg/mL)
solubility at 24 h (pH 7.1, 25°C, pH = 7.1, aqueous saline, read-out: aqueous solubility Saq): 0.06 µM (≈ 0.0235 µg/mL)
solubility (ethanol, 25 °C, organic solvent or mixture, thermodynamic from solid, ethanol, 25°C, read-out: S (solubility)): 3100 µM (≈ 1220 µg/mL)
pKa (inferred from solubility at pH 7.4 vs 7.1, read-out: strongest acidic pKa): > 7.4
solubility (octane, 25 °C, organic solvent or mixture, thermodynamic from solid, octane, 25°C, read-out: S (solubility)): 2600 µM (≈ 1020 µg/mL)
solubility (octane, 25°C, read-out: S (solubility)): ~2600 µM (≈ 1020 µg/mL)
aqueous solubility at 37°C compared to that at 25°C (pH = 7.1, higher at 37°C): ~ 2 fold
solubility (pentane, 25 °C, organic solvent or mixture, thermodynamic from solid, pentane, 25°C, read-out: S (solubility)): 18 µM (≈ 7.06 µg/mL)
solubility (pentane, 25°C, read-out: S (solubility)): ~18 µM (≈ 7.06 µg/mL)
Structure (SMILES): CC(C)(C)c1cc(C(C)(C)C)c(NC(=O)c2c[nH]c3ccccc3c2=O)cc1O [Vx-770, ivacaftor]
